# In ChEMBL document CHEMBL1127923, “Design and synthesis of squalene synthase inhibitors - acylic mimics of the zaragazic acids” (Bioorg Med Chem Lett, 1994):
# Target: T1, Squalene synthase (Rattus norvegicus) (UniProt Q02769)
# T1 sequence (whole entry): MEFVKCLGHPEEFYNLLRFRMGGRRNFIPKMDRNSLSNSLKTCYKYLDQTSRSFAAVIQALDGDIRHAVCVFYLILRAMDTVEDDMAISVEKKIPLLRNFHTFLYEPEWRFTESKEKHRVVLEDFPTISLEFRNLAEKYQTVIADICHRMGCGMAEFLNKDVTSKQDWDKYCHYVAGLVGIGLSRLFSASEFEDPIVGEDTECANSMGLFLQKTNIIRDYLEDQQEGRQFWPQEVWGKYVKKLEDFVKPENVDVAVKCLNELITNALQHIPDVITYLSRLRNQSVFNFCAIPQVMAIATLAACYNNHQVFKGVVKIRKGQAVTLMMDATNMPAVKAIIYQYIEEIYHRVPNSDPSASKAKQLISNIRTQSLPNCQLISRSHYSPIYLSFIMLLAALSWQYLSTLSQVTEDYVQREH
# Experiment: Inhibitory activity against squalene synthase in rat liver squalene synthase (RLSS) enzyme assay
row,Activity [nM],Structure (SMILES)
1,> 3000,CC(=O)O[C@H](CCCOC(=O)C(OC(=O)CCCCCCCCCCOc1ccccc1)C(=O)O[C@H](CC(=O)O)C(=O)O)[C@H](C)Cc1ccccc1 (some centres not stated)
2,200,CC(=O)O[C@H](CCCOC(=O)C[C@@H](OC(=O)CCCCCCCCCCOc1ccccc1)C(=O)OC(C(=O)O)C(=O)O)[C@H](C)Cc1ccccc1
3,200,CC(=O)O[C@H](CCOC(=O)C[C@@H](OC(=O)CCCCCCCCCCOc1ccccc1)C(=O)O[C@H](CC(=O)O)C(=O)O)[C@H](C)Cc1ccccc1

# The next lines start with the compound.
row,Structure (SMILES),Activity [nM]
1,CC[C@H](C)C[C@H](C)/C=C/C(=O)O[C@H](CC(=O)OCCC[C@@H](OC(C)=O)[C@H](C)Cc1ccccc1)C(=O)O[C@H](CC(=O)O)C(=O)O,470
2,CC(=O)O[C@H](CCCOC(=O)C[C@@H](OC(=O)CCCCCCCCCCOc1ccccc1)C(=O)N1CCC[C@H]1C(=O)O)[C@H](C)Cc1ccccc1,> 3000
3,CC[C@H](C)C[C@H](C)/C=C/C(=O)O[C@H](CC(=O)OCCC[C@@H](OC(=O)C(F)(F)F)[C@H](C)Cc1ccccc1)C(=O)O[C@@H](C(=O)O)[C@@H](O)C(=O)O,300
4,C=C(CCC12OC(C(=O)O)C(O)(C(=O)O)C(C(=O)O)(O1)[C@H](OC(=O)/C=C/[C@@H](C)C[C@@H](C)CC)[C@H]2O)[C@@H](OC(C)=O)[C@H](C)Cc1ccccc1 (some centres not stated),0.35
